{"source": "patent US6833150B1", "about": "“Spray -dried bacteriocin powder with anti-microbial activity” (Teagasc, The Agriculture and Food Development Authority, priority 2001, dated 2004)", "key": {"L. lactis HP": {"system": "L. lactis HP", "test": "Effect of high pressure on lacticin 3147 activity (well diffusion assay)", "type": "cell-based, Lactococcus lactis", "conditions": "pressures greater than 400 MPa", "description": "(§1) Activity of both lacticin 3147 preparations was determined by the agar well diffusion assay as described by Parente and Hill (15). Molten agar was seeded with the indicator strain L. lactis subsp. lactis HP and dispensed into petri dishes. Wells of approximately 6.0 mm in diameter were bored in the agar and a 50 μl volume of a two fold serial dilution of a bacteriocin preparation was dispensed into each well. The plates were then incubated at 30° C. Bacteriocin activity was calculated as the inverse of the last dilution that gave a definite zone of clearance after overnight incubation. Activity units (AU) were expressed per milliliter (1/dilution, ×20). Activity may also be expressed as zone diameter (mm), where the diameter of the first zone (neat, undiluted sample) of the dilution series is recorded.\nPressurised and non-pressurised solutions of lacticin 3147 were heat treated at 80° C. for 10 minutes prior to carrying out activity determination by the well diffusion assay using L. lactis HP as an indicator strain."}, "[1]": {"system": "Gram-positive organisms, including Listeria, Clostridium spp., Enterococcus, Staphylococcus and Streptococcus", "conditions": "cited from earlier work"}, "Staph. aureus ATCC6538": {"system": "Staph. aureus ATCC6538", "test": "High pressure and lacticin 3147 inactivation in milk (10% RSM)", "type": "cell-based, Staphylococcus aureus", "description": "For the inactivation of Staph. aureus ATCC6538 a liquid preparation of lacticin 3147 was prepared using hydrophobic adsorption chromatography. For studies on inactivation of L. innocua DPC1770 a food grade powdered preparation of lacticin 3147 was manufactured as described above with the following modification; a 1% demineralised whey powder solution was fermented with L. lactis subsp. lactis DPC3147 under pH controlled conditions of pH 6.0 for 18 hours.\nStaph. aureus ATCC6538 cells were resuspended in 10% RSM and aliquoted into sterile 700 μl PCR eppendorfs prior to placing in sterile stomacher bags (Seward Ltd., London, UK). Ten millilitre volumes of L. innocua DPC1770 cells were resuspended in 20% reconstituted demineralised whey powder aliquoted into sterile stomacher bags. Samples were individually vacuum sealed prior to placing in the pressure vessel (Stansted Fluid Power Ltd., Stansted, England). The vessel consisted of a stainless-steel cylinder (37 mm diameter×300 mm height) filled with a 15% (v/v) caster oil in ethanol solution which acts as the hydrostatic pressurisation medium. Samples were treated for 30 min at 25° C. in the pressure range 150 to 600 MPa, in addition to a control sample being held at atmospheric pressure (0.1 MPa). […] The chamber temperature was determined by means of a thermoregulating system which circulated to maintain the chamber temperature."}, "[2]": {"system": "L. lactis subsp lactis HP", "test": "Bacteriocin activity by agar well diffusion assay", "type": "cell-based, Lactococcus lactis", "conditions": "for Bacteriocin activity: 10% reconstituted demineralized whey powder; for Lacticin 3147 activity: overnight incubation at 30° C.", "description": "Bacteriocin activity was determined by the agar well diffusion assay as described by Parente and Hill (15). Molten agar was seeded with an indicator strain and dispensed into petri dishes. Wells of approximately 4.6 mm in diameter were bored in the agar and a 50 μl volume of a two fold serial dilution of a bacteriocin preparation was dispensed into each well. Bacteriocin solution was prepared by centrifuging the culture and heat treating the supernatant at 70° C. for 10 minutes prior to carrying out the dilution series. The plates were then incubated at either 30° C. or 37° C., depending on the indicator strain used. Bacteriocin activity was calculated as the inverse of the last dilution that gave a definite zone of clearance after overnight incubation. Activity units (AU) were expressed per milliliter (1/dilution, ×20).\nas §1"}}}
{"substance": "lacticin 3147", "values": [{"measurement": "change in bacteriocin activity after pressure treatment", "setting": "L. lactis HP", "result": "doubling of activity"}, {"measurement": "inhibitory spectrum", "setting": "[1]", "result": "inhibitory to a wide range of Gram-positive organisms"}, {"measurement": "logs of kill", "setting": "Staph. aureus ATCC6538; combination of 250 MPa and lacticin 3147, 30 min at 25° C.", "result": "more than 6 logs"}, {"measurement": "log reduction", "setting": "Staph. aureus ATCC6538; concentrated lacticin 3147 from culture supernatant alone", "result": 1, "unit": "log"}, {"measurement": "Bacteriocin activity", "setting": "[2]; constant pH 6.0, 30° C.", "result": 5120, "unit": "AU/ml"}, {"measurement": "Bacteriocin activity", "setting": "[2]; constant pH 7.0, 30° C.", "result": 5120, "unit": "AU/ml"}, {"measurement": "Bacteriocin activity", "setting": "[2]; no pH control, 30° C.", "result": 640, "unit": "AU/ml"}, {"measurement": "Bacteriocin activity", "setting": "[2]; pH held constant at pH 6.5, 30° C.", "result": "10,240 AU/ml"}, {"measurement": "Effect of pasteurisation on bacteriocin activity", "setting": "[2]; 72° C. for 15 sec", "result": "no effect"}, {"measurement": "Bacteriocin activity during manufacture", "setting": "[2]; after evaporation at 60° C. from 10% to 40% total solids", "result": "40,960 AU/ml"}, {"measurement": "Activity of the concentrate following overnight crystallisation", "setting": "[2]; cooled from 32° C. at 1° C. per hour overnight", "result": "remained stable"}, {"measurement": "Bacteriocin activity during manufacture", "setting": "[2]; following the pH controlled 170 L fermentation (pH 6.5, 10% total solids)", "result": "10,240 AU/ml"}, {"measurement": "Lacticin 3147 activity", "setting": "[2]; growth medium 10% reconstituted demineralised whey powder", "result": "1,280 AU/ml"}, {"measurement": "Lacticin 3147 activity", "setting": "[2]; growth medium 10% reconstituted demineralised whey powder, listed as Lacticin 3147", "result": 1280, "unit": "AU/ml"}, {"measurement": "Lacticin 3147 activity", "setting": "[2]; growth medium 10% reconstituted skimmed milk powder", "result": "1,280 AU/ml"}, {"measurement": "Lacticin 3147 activity", "setting": "[2]; growth medium 10% reconstituted skimmed milk powder, listed as Lacticin 3147", "result": 1280, "unit": "AU/ml"}, {"measurement": "Lacticin 3147 activity", "setting": "[2]; growth medium Cheddar cheese whey", "result": "2,560 AU/ml"}, {"measurement": "Lacticin 3147 activity", "setting": "[2]; growth medium Cheddar cheese whey, listed as Lacticin 3147", "result": 2560, "unit": "AU/ml"}, {"measurement": "Lacticin 3147 activity", "setting": "[2]; growth medium LM17", "result": "2,560 AU/ml"}, {"measurement": "Lacticin 3147 activity", "setting": "[2]; growth medium LM17, listed as Lacticin 3147", "result": 2560, "unit": "AU/ml"}, {"measurement": "Lacticin 3147 activity", "setting": "[2]; growth medium TY broth", "result": 640, "unit": "AU/ml"}, {"measurement": "Lacticin 3147 activity", "setting": "[2]; growth medium whey protein concentrate (WPC35)", "result": 320, "unit": "AU/ml"}, {"measurement": "Lacticin 3147 activity", "setting": "[2]; growth medium whole milk", "result": "2,560 AU/ml"}, {"measurement": "Lacticin 3147 activity", "setting": "[2]; growth medium whole milk, listed as Lacticin 3147", "result": 2560, "unit": "AU/ml"}, {"measurement": "Lacticin 3147 activity expressed as AU/g of dry matter throughout manufacture", "setting": "[2]; remained constant through pasteurisation, evaporation, crystallisation, spray drying", "result": "102,400 AU/g"}]}
